“And” between values parts separate entries of the source, which are not always exact repeats. Equal entries are not always repeated.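 48-hour exposure; five concentrations; linearly interpolated endpoints. GI50: concentration for 50% inhibition of growth. TGI: total growth inhibition.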
Key:
Experiment in all cases: NCI-60 cell line screen, 48 h
OVCAR-3 ovarian = test system: OVCAR-3 ovarian
RPMI-8226 leukemia = test system: RPMI-8226 leukemia
MALME-3M melanoma = test system: MALME-3M melanoma
SK-MEL-2 melanoma = test system: SK-MEL-2 melanoma
PC-3 prostate = test system: PC-3 prostate
SK-MEL-28 melanoma = test system: SK-MEL-28 melanoma
HS 578T breast = test system: HS 578T breast
NCI-H23 lung = test system: NCI-H23 lung
MDA-MB-231 breast = test system: MDA-MB-231 breast
U251 CNS = test system: U251 CNS

Compound | TGI (OVCAR-3 ovarian) | TGI (RPMI-8226 leukemia) | TGI (MALME-3M melanoma) | TGI (SK-MEL-2 melanoma) | TGI (PC-3 prostate) | TGI (SK-MEL-28 melanoma) | TGI (HS 578T breast) | TGI (NCI-H23 lung) | TGI (MDA-MB-231 breast) | TGI (U251 CNS) | GI50 (OVCAR-3 ovarian) | GI50 (RPMI-8226 leukemia) | GI50 (MALME-3M melanoma) | GI50 (SK-MEL-2 melanoma) | GI50 (PC-3 prostate) | GI50 (SK-MEL-28 melanoma) | GI50 (HS 578T breast) | GI50 (NCI-H23 lung) | GI50 (MDA-MB-231 breast) | GI50 (U251 CNS)
COc1ccc(N2C(=O)[C@H]3CC(C)c4c([nH]c5ccccc45)[C@H]3C2=O)cc1 (some centres undefined) | 6.68 µM | 39.3 µM | 33.9 µM | 16.5 µM | 23.6 µM | 57.8 µM | 33.4 µM | 29.4 µM | > 54.8 µM | 20.4 µM |  |  |  |  |  |  |  |  |  | 
CC[PH+](CC)CC.O=COC1OC([S-])C(OC=O)C(OC=O)C1OC=O.[Au+] (centres undefined) | 2.99 µM | 5.07 µM | 2.58 µM | 3.38 µM | 3.54 µM | 2.15 µM | 4.76 µM | 3.22 µM | 2.82 µM | 1.47 µM | 1.43 µM | 1.35 µM | 1.24 µM | 1470 nM | 1.66 µM | 0.907 µM | 0.775 µM | 1.47 µM | 1.46 µM | 0.368 µM
COc1ccc2cc(-c3c(-c4ccncc4)nc(-c4ccc(S(C)(=O)=O)cc4C)n3C)ccc2c1 | > 23.5 µM | > 25 µM | > 25 µM | > 25 µM | > 25 µM | 24.9 µM | > 25 µM | > 25 µM | > 25 µM | > 25 µM | 6.97 µM | 9.89 µM | 4.9 µM | 6780 nM | 8.35 µM | 9.28 µM | 5.24 µM | 7.99 µM | 9.75 µM | 11.2 µM
C/C=C1\NC(=O)[C@H]2CSSCCC=C[C@H](CC(=O)N[C@H](C(C)C)C(=O)N2)OC(=O)[C@H](C(C)C)NC1=O | < 0.0108 µM and 0.00294 µM |  |  |  |  | < 0.01 µM and 0.0175 µM and < 0.0122 µM | 0.0439 µM |  |  | < 0.01 µM and 0.00147 µM and < 0.0252 µM | < 0.01 µM | < 0.01 µM | < 0.01 µM and 2.09e-05 µM | < 10 nM and 0.0954 nM | < 0.01 µM | < 0.01 µM | < 0.01 µM | < 0.01 µM | < 0.01 µM | < 0.01 µM and 0.000136 µM
C=CC(=O)Nc1cc2c(Nc3ccc(F)c(Cl)c3)ncnc2cc1OCCCN1CCOCC1 | 4.63 µM and > 8.9 µM | 5.17 µM and > 10 µM | 5.84 µM and > 10 µM | 3.79 µM and > 6.51 µM | 9.85 µM and > 10 µM | 3.21 µM and > 10 µM | 7.21 µM and > 10 µM | 3.94 µM and > 6.12 µM | 4.71 µM and 9.93 µM | 14.9 µM and > 10 µM | 1.52 µM and 1.3 µM | 1.94 µM and 2.75 µM | 2.41 µM and 6.17 µM | 1960 nM and 2170 nM | 2.76 µM and 4.33 µM | 1.67 µM and > 6.85 µM | 2.05 µM and 2.21 µM | 1.82 µM and 2.39 µM | 1.74 µM and 2.32 µM | 3.57 µM and > 6.22 µM
O=C1c2cc(Cl)ccc2-c2c1c1ccc([N+](=O)[O-])cc1c(=O)n2CCCBr | > 100 µM | 96 µM | 82 µM | > 100 µM | > 100 µM | > 100 µM | > 100 µM | > 100 µM | > 100 µM | > 100 µM | 36.6 µM | 3.66 µM | 9.32 µM | 82600 nM | 19.2 µM | 33.5 µM | > 100 µM | 8.27 µM | > 100 µM | 3.07 µM
Cc1cc2c(cc1Cl)SC1=NN(C)C(N(C)C)N1S2(=O)=O (centres undefined) | > 100 µM | > 100 µM | > 100 µM | > 100 µM | > 100 µM | > 100 µM | > 100 µM | > 100 µM | > 100 µM | > 100 µM | > 100 µM | > 100 µM | > 100 µM | > 100000 nM | > 100 µM | > 100 µM | > 100 µM | > 100 µM | > 100 µM | > 100 µM
COc1cc(C(=O)Nc2cc3c(cc2Oc2cc(C)cc(C)c2)C(=O)N(C)[C@@H](CC(=O)N(C)O)C(=O)N3)c(Br)c(OC)c1OC | < 0.00333 µM | < 0.00333 µM | < 0.00333 µM | < 0.00333 µM | 0.00358 µM | < 0.00333 µM | 0.00422 µM | 0.00543 µM | < 0.00333 µM | 0.00506 µM | < 0.00333 µM | < 0.00333 µM | < 0.00333 µM | < 3.33 nM | < 0.00333 µM | < 0.00333 µM | < 0.00333 µM | < 0.00333 µM | < 0.00333 µM | < 0.00333 µM
CCOC(=O)/C=C/C1=C(c2cccs2)c2ccccc2CC1 | > 100 µM | 49.4 µM | 69.7 µM | > 100 µM | > 100 µM | 75 µM | 99.1 µM | 89.4 µM | 64.7 µM | 39.6 µM | 29.5 µM | 21.2 µM | 24.8 µM | 35900 nM | 37.1 µM | 26.3 µM | 28.5 µM | 28.8 µM | 20.5 µM | 19.7 µM
COc1ccc(-c2ccc(-c3ccc(C(=N)N)cn3)o2)cc1 | 21.6 µM | 10.1 µM | 7.32 µM | 15.9 µM | 18 µM | 20.9 µM | 36.7 µM | 25.5 µM | 15.3 µM | 17.4 µM | 8.9 µM | 2.78 µM | 3.25 µM | 4910 nM | 4.18 µM | 8.23 µM | 10.9 µM | 11.6 µM | 3.34 µM | 4.7 µM
